Assay: gradient 5% acetonitrile 3 min, to 50% in 2 min, to 85% in 15 min, held 3 min, 100 µL/min
Details: column: Zorbax Extend-C18 2.1 x 50 mm; eluents: water / acetonitrile, 0.1% formic acid
In short: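 Retention time was recorded from adduct peaks, which were picked computationally and each inspected manually. Pure standards ran in mixtures of ~100 molecules on HPLC coupled to a quadrupole time-of-flight mass spectrometer, in positive and negative ionization mode, through a Zorbax Extend-C18 column (2.1 × 50 mm, 1.8 μm) at 100 μL/min. Eluents were water and acetonitrile, each with 0.1% formic acid.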
For `Cn1cnc(S(=O)(=O)N2CCC[C@H](n3c(=O)n(C)c4cccnc43)C2)c1`, the RP-LC retention time was 654 s.
For `COc1ccc(NC(=O)N2[C@H]3CC[C@@H]2c2cncnc2C3)c(OC)c1`, the RP-LC retention time was 639 s.
`Cc1ccc(-c2noc(-c3nc(C4CC4)no3)n2)cc1` showed an RP-LC retention time of 1160 s.
For `CCCS(=O)(=O)c1nc2ccc(NS(=O)(=O)c3ccc(F)cc3F)cc2s1`, the RP-LC retention time was 934 s.
For `O=C(O)c1cnc(N2CCSCC2)nc1-c1cccc(Cl)c1`, the RP-LC retention time was 964 s.
In the case of `COC(=O)C1=CN(C2CC2)c2cc(N3CCCCC3)c(F)cc2S1(=O)=O`, the RP-LC retention time is reported as 932 s.
`Cc1ccc(C(=O)N2CC=C(C(=O)NC3CC3)CC2)cc1` gave an RP-LC retention time of 847 s.
Work on `CC(C)COc1ccc(C(=O)N(Cc2ccc(Br)o2)C2CCS(=O)(=O)C2)cc1` (centres undefined) yielded an RP-LC retention time of 1050 s.
In the case of `CCS(=O)(=O)Nc1ccc(Nc2c3ccccc3nc3ccccc23)c(OC)c1`, the RP-LC retention time is reported as 649 s.
`COc1ccc2[nH]c3c(c2c1)CCN1C(=O)N(c2cccc(Cl)c2)C(=O)C31C` (centres undefined) gave an RP-LC retention time of 1030 s.
Work on `O=C(Nc1nnc(Cc2cccs2)o1)c1cc2cc([N+](=O)[O-])ccc2s1` yielded an RP-LC retention time of 858 s.
Compound `O=C(O)C1(c2cc(-c3ccccc3)on2)CC1` has an RP-LC retention time of 736 s.
Work on `O=C(C1CC1)N1CCc2sc(S(=O)(=O)NCc3ccc(F)cc3)cc2C1` yielded an RP-LC retention time of 805 s.
For `CC(=O)Nc1cccc(N2CC(C(=O)NC3CCCCCCC3)CC2=O)c1` (centres undefined), the RP-LC retention time was 731 s.
Work on `Cc1ccc(NC(=O)N2CCN(c3cc(C)nc(N4CCCC4)n3)CC2)cc1` yielded an RP-LC retention time of 677 s.
Work on `O=C(C1CCC(=O)N1S(=O)(=O)c1ccccc1)N1CCN(c2ccccn2)CC1` (centres undefined) yielded an RP-LC retention time of 602 s.
In the case of `Cc1ccc(Cn2cccc2C(=O)C(=O)NCc2ccco2)cc1C`, the RP-LC retention time is reported as 1070 s.
In the case of `Cc1ccc2[nH]cc(CCN3CC(C(=O)Nc4ccccc4C)CC3=O)c2c1` (centres undefined), the RP-LC retention time is reported as 798 s.
In the case of `Cc1nnc2ccc(-c3noc(-c4ccc5c(c4)OCO5)n3)cn12`, the RP-LC retention time is reported as 871 s.
In the case of `Cc1cc(=O)n(CC(=O)Nc2cccc(C)c2C)c(N(C)Cc2ccccc2)n1`, the RP-LC retention time is reported as 794 s.
Work on `CCNc1cc(C)nc(N2CCN(C(=O)C(C)C)CC2)n1` yielded an RP-LC retention time of 598 s.
For `Cn1nc(-c2nc(-c3ccccc3)no2)c2c1CCN(C(=O)NC(C)(C)C)C2`, the RP-LC retention time was 780 s.
For `Cc1noc(C2CN(C(=O)c3n[nH]c4ccccc34)CC23CCOCC3)n1` (centres undefined), the RP-LC retention time was 665 s.
In the case of `Cn1nccc1C(=O)N1CCN(c2cc(=O)n(C)c(=O)n2C)CC1`, the RP-LC retention time is reported as 587 s.
For `COc1ccc(-c2ccc3nc(N4CCC(C(=O)NCCN(C)C)CC4)sc3n2)cc1`, the RP-LC retention time was 665 s.
For `CCOC(=O)C1CCCN(S(=O)(=O)c2cc(-c3nc(C)c(C)s3)sc2C)C1` (centres undefined), the RP-LC retention time was 1170 s.
Work on `O=S(=O)(c1ccc(-c2noc(-c3ccccc3F)n2)cc1)N1CCCC1` yielded an RP-LC retention time of 1100 s.
Compound `COc1ccc(-c2nnc(-c3ccc(C)c(S(=O)(=O)N4CCCCC4)c3)o2)cc1` has an RP-LC retention time of 1120 s.
In the case of `O=C(NCCCc1ccccc1)C1CCCN(C(=O)Cc2cccc3ccccc23)C1` (centres undefined), the RP-LC retention time is reported as 944 s.
`Cc1nc(C2CC23CCN(S(=O)(=O)c2cccc(F)c2)CC3)no1` (centres undefined) showed an RP-LC retention time of 888 s.
Work on `COc1ccc(NC(=O)NCCC2CCN(S(=O)(=O)c3ccccc3)CC2)cc1` yielded an RP-LC retention time of 822 s.
In the case of `CCSc1nnc(NC(=O)C2CCCN(Cc3nc(-c4cccs4)no3)C2)s1` (centres undefined), the RP-LC retention time is reported as 769 s.
`O=C1NCCN2CC3(CCN(S(=O)(=O)Cc4ccccc4)CC3)CC12` (centres undefined) showed an RP-LC retention time of 594 s.
`Nc1nc(-c2ccccc2)nn1C(=O)c1ccc(F)cc1` gave an RP-LC retention time of 974 s.
`Cc1nc(-c2csc(S(=O)(=O)N3CCC(C(=O)NCc4cccs4)CC3)c2)no1` showed an RP-LC retention time of 823 s.
Compound `Cc1ccn2cc(-c3ccc(NC(=O)c4ccc(Cl)cc4Cl)cc3)nc2n1` has an RP-LC retention time of 695 s.
For `O=S(=O)(c1ccc(-n2cnnn2)cc1)N1CCN(c2ccccn2)CC1`, the RP-LC retention time was 596 s.
Work on `O=C(Nc1ccc(C(F)(F)F)cn1)c1cccc2cccnc12` yielded an RP-LC retention time of 1090 s.
With `Cc1cc(C)cc(Nc2c(-c3cc(Br)ccc3O)nc3ncccn23)c1` the RP-LC retention time was 1140 s.
In the case of `O=C(CSc1nc2scc(-c3ccccc3)c2c(=O)[nH]1)c1ccccc1`, the RP-LC retention time is reported as 936 s.
`O=C(Nc1ccc(Cl)c(Cl)c1)N1CCN(Cc2ccsc2)CC1` gave an RP-LC retention time of 598 s.
In the case of `COc1ccc(NC(=O)N(C)CCc2noc(COc3ccc(F)cc3)n2)c(OC)c1`, the RP-LC retention time is reported as 837 s.
For `COc1ccccc1NC(=O)C1CCN(S(C)(=O)=O)c2ccccc2O1` (centres undefined), the RP-LC retention time was 916 s.
With `CC(C)NS(=O)(=O)c1ccc(NC(=O)Cn2cncn2)cc1` the RP-LC retention time was 602 s.
`COc1ccc(S(=O)(=O)N2CC3CN(C(=O)c4cccc(F)c4)CC(C2)O3)cc1` showed an RP-LC retention time of 794 s.
`O=C(CCNc1cnc2cnccn12)Nc1ccc(N2CCOCC2)cc1` gave an RP-LC retention time of 534 s.
`CCc1nc2cc3c(cc2n1CC(=O)N1C(C)CCCC1C)OCCO3` (centres undefined) gave an RP-LC retention time of 668 s.
With `COCCCn1cnc2c(-c3ccccc3)cn(CC(=O)NCc3ccc4c(c3)OCO4)c2c1=O` the RP-LC retention time was 855 s.
For `COc1ccc(C2Cn3cnc(C(=O)N4CCC(C(=O)NC(C)c5ccccc5)CC4)c3CO2)cc1` (centres undefined), the RP-LC retention time was 751 s.
`Cc1cc(C2CCCN2C(=O)Nc2ccccc2C(F)(F)F)on1` (centres undefined) showed an RP-LC retention time of 812 s.
`CCCn1nc(CNC(=O)c2ccc3c(c2)OCO3)c2ccccc21` gave an RP-LC retention time of 843 s.
For `CC(C)(C)NC(=O)N1CCC(OC2CCN(Cc3ccccc3)CC2)CC1`, the RP-LC retention time was 625 s.
`CCc1nnc2nc(N3CCN(C(=O)COc4ccc(OC)cc4)CC3)cc(C)n12` showed an RP-LC retention time of 613 s.
`O=C(CN1C(=O)CCS(=O)(=O)c2ccccc21)Nc1ccc(C(F)(F)F)cc1` gave an RP-LC retention time of 843 s.
With `C=CCNC(=O)C1CCCN(C(=O)Nc2ccc(NC(=O)Nc3ccccc3F)cc2)C1` (centres undefined) the RP-LC retention time was 731 s.
`CC(NC(=O)C1CCN(C(=O)N2CCOc3ccc(Cl)cc32)CC1)c1ccccc1` (centres undefined) gave an RP-LC retention time of 906 s.
For `Cc1cc(=O)n(CC(=O)Nc2ccccc2F)c(N2CCOCC2)n1`, the RP-LC retention time was 643 s.
In the case of `CCOc1ccc(-c2noc(Cc3nnc(-c4ccccc4)o3)n2)cc1`, the RP-LC retention time is reported as 1040 s.
With `CC(C)NC(=O)CCn1c(=O)c2ccccc2n2c(=O)n(Cc3ccccc3)nc12` the RP-LC retention time was 801 s.
`COc1cc(NC(=O)COc2cc(C)nc(-c3ccc(C(F)(F)F)cc3)n2)cc(OC)c1OC` showed an RP-LC retention time of 1080 s.
`COc1cc(=O)n2c(c1C(=O)Nc1ccc(Br)cc1C)CCCC2` showed an RP-LC retention time of 757 s.
`O=C1CC(c2nc(-c3ccccc3Cl)no2)CN1c1ccc2c(c1)OCO2` (centres undefined) gave an RP-LC retention time of 933 s.
Compound `Cn1cc(CN2CCC(C(=O)NCC3CCN(Cc4cccc(F)c4)CC3)CC2)c2ccccc21` has an RP-LC retention time of 572 s.
Work on `COc1cc(OC)c(OC)cc1CN1C[C@@H]2C(=O)N(C)C(=O)[C@@H]2C1` yielded an RP-LC retention time of 570 s.
`CCCn1c(=O)sc2cc(S(=O)(=O)N3CCC(C(=O)NC(C)C)CC3)ccc21` gave an RP-LC retention time of 818 s.
Compound `CC(CCc1ccco1)NC(=O)C1CCN(c2nc(-c3ccc(Cl)cc3)no2)CC1` (centres undefined) has an RP-LC retention time of 1080 s.
Work on `CCNc1cc(N2CCCC(CCC(=O)N(C)CCc3ccccn3)C2)ncn1` (centres undefined) yielded an RP-LC retention time of 556 s.
For `O=C(Nc1nnc(Cc2ccccc2)s1)C1CCN(C(=O)c2cccc(F)c2)CC1`, the RP-LC retention time was 798 s.
In the case of `O=c1n(Cc2ccccc2)nc2ccc(S(=O)(=O)N3CCOCC3)cn12`, the RP-LC retention time is reported as 778 s.
Compound `COc1cccc(-c2noc(-c3nn(-c4ccc(F)c(F)c4)ccc3=O)n2)c1OC` has an RP-LC retention time of 796 s.
Work on `CCCn1ccc2sc(C)c(C(=O)NCc3cc(OC)ccc3OC)c2c1=O` yielded an RP-LC retention time of 889 s.
For `COc1ccc(-c2noc(C3CC(=O)N(c4cccc(Cl)c4)C3)n2)cc1` (centres undefined), the RP-LC retention time was 998 s.
In the case of `O=C(c1cccc2[nH]ccc12)N1CCCC(c2n[nH]c(C3CC3)n2)C1` (centres undefined), the RP-LC retention time is reported as 606 s.
With `O=C(Nc1ccccc1)N1C[C@@H]2C(=O)N(CCc3ccccc3)C(=O)[C@@H]2C1` the RP-LC retention time was 789 s.
Work on `CCc1ccc(C(=O)N2CCC3(CC2)N=C(c2ccc(C)cc2)NO3)cc1` yielded an RP-LC retention time of 933 s.
`CCCC(=O)Nc1ccc(CCc2nc3ccc(C(=O)NCCC(C)C)cc3[nH]2)cc1` gave an RP-LC retention time of 674 s.
With `CC1CCN(S(=O)(=O)c2ccc(-c3nnc(C(C)C)o3)o2)CC1` the RP-LC retention time was 964 s.
Work on `COCCN1C(=O)c2ccc(-c3ccco3)n2CC1(C)C(=O)NCc1ccccc1` (centres undefined) yielded an RP-LC retention time of 814 s.
`COc1ccc(C2Cn3cnc(C(=O)N4CCC(C(=O)NCC5CCCCC5)CC4)c3CO2)cc1` (centres undefined) showed an RP-LC retention time of 821 s.
Compound `CCn1cnc(S(=O)(=O)N2CCCC(C(=O)Nc3ccc(C)c(C)c3)C2)c1` (centres undefined) has an RP-LC retention time of 800 s.
`Cn1c(C(=O)NCc2ccccn2)cc2c(=O)oc3ccccc3c21` showed an RP-LC retention time of 607 s.
`CCSc1nnc(-c2nn(C)c3c2CN(S(=O)(=O)c2ccc4c(c2)OCCO4)CC3)n1CC` gave an RP-LC retention time of 895 s.
For `CCC1(O)CCOC2(CCN(C(=O)CC3CC3)CC2)C1` (centres undefined), the RP-LC retention time was 627 s.
With `CCCN1C(=O)COc2ccc(-c3csc(NC(=O)CC)n3)cc21` the RP-LC retention time was 861 s.
Compound `CCCS(=O)(=O)N1CCOc2ccc(CN3CCc4ccccc4C3)cc2C1` has an RP-LC retention time of 596 s.
For `CC(C)Cn1c(=O)c(-c2ccc(C(=O)NCc3ccncc3)cc2)nc2ccccc21`, the RP-LC retention time was 681 s.
In the case of `O=C(Nc1ccc2c(c1)N(C(=O)C1CCCO1)CC2)c1ccc(F)c(F)c1` (centres undefined), the RP-LC retention time is reported as 771 s.
`O=C(NCCCn1ncccc1=O)c1coc(NC(=O)c2cccs2)n1` showed an RP-LC retention time of 589 s.
In the case of `Cc1ccc(C)c(Sc2ccc(N3CCC(C(=O)NC4CC4)CC3)nn2)c1`, the RP-LC retention time is reported as 713 s.

From the METLIN SMRT retention time set (Domingo-Almenara et al. 2019)
